Where two headings read alike, the source gives them in different places.
Columns and labels:
[1] = test system: P. falciparum stage V female gametocytes; test: P. falciparum female gametocyte activation assay (Pf FGAA), 24 h or 48 h preincubation, Pfs25 expression readout; format: cell-based, Plasmodium falciparum NF54; details: mean, read-out: Gametocytes mean Pf FGAA IC50
How it was run: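 Purified stage V gametocytes from P. falciparum NF54 gametocyte cultures were exposed to compounds for 24 h or 48 h at 37 °C under 3% O2/5% CO2, then activated by temperature drop plus xanthurenic acid. Activated females were stained with Cy3-anti-Pfs25 (0.5 μg ml^−1) for 24 h at 26 °C and counted by high-content imaging; pIC50 by nonlinear regression.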

[2] = test system: P. falciparum stages IV–V gametocytes; test: Gametocytocidal ATP-depletion assay (gametocyte ATP bioluminescence); format: cell-based, Plasmodium falciparum
How it was run: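 Purified stage IV–V gametocytes (12,500/well) incubated with compound for 48 h at 37 °C under 3% O2/5% CO2. ATP measured by BacTiter-Glo luminescence as a viability surrogate; hits tested at 2 μM single concentration.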

HepG2 cells = test: HepG2 cytotoxicity assay; format: cell-based
How it was run: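 After compound incubation, plates and CellTiter-Glo reagent were brought to room temperature for 30 min. The reagent was then added, and luminescence was read after a 10 min room-temperature stabilization.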

[3] = test system: P. falciparum asexual blood stages; details: read-out: Pf Asexual blood stages XC50, cited from earlier work
[4] = P. falciparum female gametocytes
[5] = TCAMS asexual blood stage data, ref 1 (Gamo, F. J. et al., Nature 465, 305-310, 2010)
[6] = TCAMS data, ref 1 (Gamo et al., 2010)

Structure (SMILES) | IC50 [1, 4] [nM] | IC50 [1] [nM] | Gametocytes mean ATP inhibition at 2µM [2] [%] | HepG2 cells mean TOX50 (HepG2 cells; HepG2 cells; mean) [µM] | IC50 [3, 5] [nM] | Gametocytes mean ATP inhibition at 2µM (%) [2] [%] | HepG2 cells mean TOX50 (HepG2 cells; mean) [µM] | IC50 [3, 6] [nM] | IC50 ([1]; P. falciparum female gametocyte activation assay) [nM] | HepG2 cells mean TOX50 (HepG2 cells; mean; HepG2 cells) [µM]
COc1ccc(OC)c(-c2cccc(-c3cccc(NC(=O)c4ccc([N+](=O)[O-])o4)c3)n2)c1 [TCMDC-124799] | 960 | – | 25.78 | 3.63 | 370 | – | – | – | – | –
CCN1CCN(c2ccc(Nc3c4ccccc4nc4ccccc34)cc2)CC1 [TCMDC-124255] | 1000 | – | 12.43 | 4.57 | 720 | – | – | – | – | –
CCCOc1c(CCNCCCCNCCc2ccc3ccccc3c2OCCC)ccc2ccccc12.CS(=O)(=O)O [TCMDC-137950] | – | 640 | – | – | – | 95.44 | 1.72 | 480 | – | –
O=C(O)C(F)(F)F.c1cc(CN2CCC(CCN3CCCCC3)CC2)cc(-c2csc(-c3nc4ccccc4[nH]3)c2)c1 [TCMDC-133919] | 2110 | – | 3.61 | 6.04 | 140 | – | – | – | – | –
Cc1c(Cn2nc(Cl)c(N3CCNCC3)cc2=O)cccc1NC(=O)Nc1ccc(-c2ccccc2)cc1.O=C(O)C(F)(F)F [TCMDC-141699] | – | – | -8.75 | – | 1380 | – | – | – | 4910 | 4.22
CC(C)C1=CC(=NOS(=O)(=O)c2ccccc2)C=C(C(C)C)C1=O [TCMDC-124172] | 880 | – | 65.50 | 21.70 | 710 | – | – | – | – | –
COc1ccc2c(c1CCNCCCCNCCc1c(OC)ccc3c1CCCC3)CCCC2.CS(=O)(=O)O [TCMDC-137324] | – | 640 | – | – | – | 95.49 | 1.68 | 380 | – | –
COc1ccc(CNC2Cc3ccccc3C2)cc1-c1ccc(OC)c(S(=O)(=O)NCCN2CCCC2)c1.O=C(O)C(F)(F)F [TCMDC-132251] | 2700 | – | 24.03 | 7.17 | 770 | – | – | – | – | –
Cl.c1ccc2c(NCCCCCCCCCNc3c4ccccc4nc4ccccc34)c3ccccc3nc2c1 [TCMDC-124286] | 1800 | – | 51.90 | 4.90 | 300 | – | – | – | – | –
COc1ccc2cc(CNCCCCCCNCc3ccc4cc(OC)ccc4c3)ccc2c1.CS(=O)(=O)O [TCMDC-137797] | – | 590 | – | – | – | 35.46 | 1.55 | 620 | – | –
Cc1cc(-c2ccc(CNC3Cc4ccccc4C3)cc2)ccc1S(=O)(=O)NCCN1CCCC1.O=C(O)C(F)(F)F [TCMDC-132243] | 1830 | – | 16.13 | 5.31 | 700 | – | – | – | – | –
COc1cc(CNCCCCCCNCc2cc(OC)c3ccccc3c2OC)c(OC)c2ccccc12.CS(=O)(=O)O [TCMDC-137502] | – | 1670 | – | – | – | 1.18 | 3.67 | 700 | – | –
COc1ccc(-c2ccccc2)cc1NC(=S)NC1CCC(CN2CCC(c3c[nH]c4ccccc34)CC2)CC1 (stereo not drawn) [TCMDC-140182] | – | 1650 | – | – | – | 21.09 | 5.50 | 650 | – | –
CCCCOc1cc(OC)c2ccccc2c1CCNCCCCNCCc1c(OCCCC)cc(OC)c2ccccc12.CS(=O)(=O)O [TCMDC-137845] | – | 760 | – | – | – | 95.21 | 1.97 | 1050 | – | –
CS(=O)(=O)O.FC(F)(F)COc1ccc(CCNCCCCNCCc2ccc(OCC(F)(F)F)c3ccccc23)c2ccccc12 [TCMDC-137282] | – | 200 | – | – | – | 91.27 | 1.66 | 650 | – | –

Continued, in another order:

IC50 [1, 4] [nM] | IC50 [1] [nM] | Structure (SMILES) | Gametocytes mean ATP inhibition at 2µM [2] [%] | HepG2 cells mean TOX50 (HepG2 cells; HepG2 cells; mean) [µM] | IC50 [3, 5] [nM] | Gametocytes mean ATP inhibition at 2µM (%) [2] [%] | HepG2 cells mean TOX50 (HepG2 cells; mean) [µM] | IC50 [3, 6] [nM] | IC50 ([1]; P. falciparum female gametocyte activation assay) [nM] | HepG2 cells mean TOX50 (HepG2 cells; mean; HepG2 cells) [µM]
2510 | – | CCCCN(CCCC)/C(=N/C(=N)NCc1ccc(Cl)c(Cl)c1)NCCCCCCN/C(=N\C(=N)NCc1ccc(Cl)c(Cl)c1)N(CCCC)CCCC [TCMDC-131821] | 63.54 | 13.96 | 400 | – | – | – | – | –
– | 1050 | COc1cc2nc(N3CCC(CNC(=O)c4ccc(-c5ccc(-c6noc(C)n6)cc5)cc4)CC3)nc(N)c2cc1OC [TCMDC-138754] | – | – | – | 90.89 | 4.90 | 140 | – | –
1360 | – | O=S(=O)(Nc1cccc(F)c1CNCc1ccccn1)c1ccc(Cl)c(Cl)c1 [TCMDC-132598] | 51.32 | 20.42 | 890 | – | – | – | – | –
– | 1770 | Nc1ccc2[nH]cc(C3CCN(CC4CCN(C(=O)/C=C/c5ccc(Cl)c(Cl)c5)CC4)CC3)c2n1 [TCMDC-140061] | – | – | – | -11.61 | 5.89 | 700 | – | –
– | 580 | c1ccc(-c2nc(Nc3nc4ccccc4[nH]3)[nH]c2-c2ccccc2)cc1 [TCMDC-139099] | – | – | – | 51.90 | 10.98 | 620 | – | –
– | 2050 | CN(C)CCN(C)Cc1ccc(-c2ccc3c(Nc4ccc(Oc5ccccn5)cc4)ccnc3c2)o1 [TCMDC-138426] | – | – | – | 16.13 | 5.37 | 420 | – | –
– | 11500 | c1cc(C2=N[C@H]3CCCC[C@@H]3N2)ccc1OCCCOc1ccc(C2=N[C@@H]3CCCC[C@H]3N2)cc1 [TCMDC-137803] | – | – | – | 57.55 | 38.02 | 730 | – | –
1670 | – | CN1CCCC1CCNCc1cccc(-c2cnc(N3CCCC(C)(C)C3)nc2)c1 (stereo not drawn) [TCMDC-133144] | 3.15 | 4.63 | 930 | – | – | – | – | –
7870 | – | N=C(/N=C(/NCCCCCCN/C(=N\C(=N)Nc1ccc(Cl)cc1)N1CCCCC1)N1CCCCC1)Nc1ccc(Cl)cc1 [TCMDC-131811] | 49.82 | 44.23 | 260 | – | – | – | – | –
– | 360 | C=CCC1OC(=O)c2cc(OC)cc(OC)c21 (stereo not drawn) [TCMDC-138677] | – | – | – | 95.50 | 2.29 | 340 | – | –
160 | – | O=C(c1ccc([N+](=O)[O-])o1)N1CCC(Cc2ccc(C(F)(F)F)cc2)CC1 [TCMDC-124805] | 93.11 | 27.05 | 170 | – | – | – | – | –
– | 590 | COC(=O)c1ccc(-c2ccc(-c3cccnc3)cc2C)cc1 [TCMDC-139074] | – | – | – | 88.85 | 3.63 | 660 | – | –
60 | – | Cc1occc1C(=O)Nc1nc(-c2ccccn2)nc2ccsc12 [TCMDC-135244] | 87.21 | >100 | 900 | – | – | – | – | –
10900 | – | Br.Oc1ccc(CCNCCCCCCNCCc2ccc(-c3ccccc3)cc2)cc1O [TCMDC-131268] | 64.17 | 13.18 | 600 | – | – | – | – | –
– | 1150 | Cl.c1ccc2c(C3CCN(CCCCOc4ccc5c(c4)CCN(CC4CC4)CC5)CC3)c[nH]c2c1 [TCMDC-136244] | – | – | – | -6.50 | 5.15 | 980 | – | –

— paper PMC5442318, “Hundreds of dual-stage antimalarial molecules discovered by a functional gametocyte screen” (Nature Communications, 2017)
